The structures appear in SMILES notation.

Results on nine molecules are retold here after patent US20240425484A1, “INHIBITORS OF TYK2” (Atomwise Inc., priority 2023, published 2024).

Series [1] has as its target T1, TYK2-JH2 (Homo sapiens, UniProt P29597).
T1 construct: TYK JH2 enzyme mix (ChemPartner: CP20210818A-BV); purchased ChemPartner CP20210818A-BV
The series is described as follows: TYK2-JH2 HTRF binding assay (ligand efficiency). The settings on record: calculated (Equation 1) from IC50 of the TYK-JH2 binding assay. The procedure: The following example describes the TYK2-JH2 HTRF binding assay used to determine the ligand efficiency of the TYK2 inhibitors.
To calculate ligand efficiency, Equation 1 is applied: […]
in which IC50 comes from the binding assay used to determine compound potency.
TYK JH2 enzyme mix (ChemPartner: CP20210818A-BV), tracer (ChemPartner: CP-0029472-051) and mAb Anti-6HIS Tb cryptate Gold (Cisbio: Cat No. 61HI2TLA) mix were prepared in assay buffer (10 mM MgCl2, 20 mM HEPES pH 7.5, 0.01% Triton X-100, 1 mM DTT). Compounds diluted in DMSO (Final Concentrations 0.1 to 0.000005 [μM]) and enzyme mix (0.5 nM Final Concentration) were added to 384 well plates, briefly centrifuged and incubated at room temperature for 10 minutes. After incubation, tracer mix (Tracer-35 nM final concentration); (MAb Anti-6HIS Tb cryptate Gold-0.5X final)) was added, briefly centrifuged then incubate at room temperature 60 minutes. After incubation, plates were read by Envision TR-FRET (Ex340/Em495/520) protocol (PerkinElmer-Envision 2104 multilabel plate reader).

A short description of series [2]: Mouse pharmacokinetic study, oral administration. Type of series: in vivo. The settings on record: male, mouse plasma, PO at 5 mg/kg; for half-life: read-out: Half-life t1/2; for Cmax: read-out: Maximum plasma concentration Cmax; for AUC(0-inf): read-out: Total systemic exposure AUCinf. The procedure: The following example describes the methods used to evaluate the pharmacokinetics of TYK2 inhibitors in vivo following dosing of a compound of the invention.
The pharmacokinetics of test compounds were evaluated in either male CD-1 mice or male C57BL/6 mice when administered by oral gavage and IV bolus injection. The animals were allowed free access to food and water before administration. The plasma samples were analyzed by LC-MS/MS and the concentration of test compound at each time point was determined by linear regression. Pharmacokinetic parameters were calculated from the plasma concentrations by non-compartmental modeling using WinNonlin 8.2.
Oral composition. To prepare a pharmaceutical composition for oral delivery, the test articles described herein were dissolved in DMSO and then mixed with necessary volume of PEG400 followed by 0.9% sterile saline or 5% dextrose in water or 5% Kolliphor HS 15 in saline to provide the final concentrations of 0.5 mg/mL or 1 mg/mL (Table 8). The resultant mixtures were suitable for oral administration.
The PK parameters measured in mouse plasma after treatment with TYK2 inhibitor compounds via PO (oral administration) at 5 mg/kg are summarized below in Tables 9-11.

Series [3] in a line: Brain exposure pharmacokinetic study in Sprague Dawley rats. It counts as in vivo, rat. The settings on record: male Sprague Dawley rats, oral gavage 10 mg/kg, plasma, CSF. The procedure: The brain exposure of exemplary compounds, e.g., 1, 2, and 4 were evaluated in male Sprague Dawley rats after oral gavage administration at 10 mg/kg. The formulation was 5% DMSO+10% PEG400 in saline. Rats were fasted overnight with food returned 4 hours post-dose. CSF was collected by direct needle puncture into the cisterna magna.
(§1) For both rat and mouse studies, brain tissue was washed with 3 volumes of saline prior to homogenization. Brain tissue was homogenized with 3 volumes (v/w) of phosphate buffered saline. Plasma, brain homogenate, and CSF samples (rat only) were analyzed by LC-MS/MS and the concentration of test compound at each time point was determined by linear regression.
(§2) Pharmacokinetic parameters were calculated from the plasma, brain, and CSF concentrations by non-compartmental modeling using WinNonlin 8.2.

Series [4] is described as follows: Brain exposure pharmacokinetic study in C57BL/6 mice. The settings on record: male C57BL/6 mice, oral gavage 5 mg/kg, plasma. It counts as in vivo, mouse. On the procedure:
The brain exposure of 18 was evaluated in male C57BL/6 mice after oral gavage administration at 5 mg/kg. The formulation was 10% DMSO+40% PEG400 in saline. Mice were provided free access to food and water without fasting. Terminal sample collection of plasma and brain tissue were collected at […], 0.25, 0.5, 1, 2, and 4 hours post-dose with n=3 at each timepoint.
as §1, §2

T1 sequence (P29597 589-875 limits assumed): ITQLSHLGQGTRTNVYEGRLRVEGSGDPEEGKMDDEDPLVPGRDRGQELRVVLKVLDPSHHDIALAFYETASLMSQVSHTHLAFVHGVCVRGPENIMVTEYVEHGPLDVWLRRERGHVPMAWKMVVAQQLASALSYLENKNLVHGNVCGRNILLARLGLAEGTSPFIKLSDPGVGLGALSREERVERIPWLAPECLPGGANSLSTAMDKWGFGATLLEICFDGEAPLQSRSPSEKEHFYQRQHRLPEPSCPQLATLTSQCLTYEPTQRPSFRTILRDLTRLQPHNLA

Regarding `C[C@@H](c1ccc(Nc2cc(Nc3ncc(F)cc3S(C)(=O)=O)ncn2)nc1)N1CC2(COC2)C1` [Compound 2, (S)—N^4-(5-(1-(2-oxa-6-azaspiro[3.3]heptan-6-yl)ethyl)pyridin-2-yl)-N^6-(5-fluoro-3-(methylsulfonyl)pyridin-2-yl)pyrimidine-4,6-diamine], the “Ligand Efficiency” value in series [1] was “††† (†††: >0.39)”. For the same molecule, in series [2], the half-life is 1 to 1.5 h, the Cmax was greater than 1500 ng/mL and the AUC(0-inf) is greater than 2000 ng·h/mL. The “Brain Kpu, u” value in series [3] was “† (†<0.1 u)”.
In the case of `C[C@H]1CN(C2CC2)CCN1c1ccc(Nc2cc(Nc3ncccc3S(C)(=O)=O)ncn2)nc1` [Compound 8, (S)—N^4-(5-(4-cyclopropyl-2-methylpiperazin-1-yl)pyridin-2-yl)-N^6-(3-(methylsulfonyl)pyridin-2-yl)pyrimidine-4,6-diamine], the “Ligand Efficiency” value in series [1] is recorded as “††† (†††: >0.39)”. Further, in series [2], the half-life is greater than 1.5 h, the Cmax fell in the range of 800 to 1500 ng/mL and the AUC(0-inf) is 1000 to 2000 ng·h/mL.
Take `C[C@@H](c1ccc(Nc2cc(Nc3ncccc3S(C)(=O)=O)ncn2)nc1)N(C)C` [Compound 4, (S)—N^4-(5-(1-(dimethylamino)ethyl)pyridin-2-yl)-N^6-(3-(methylsulfonyl)pyridin-2-yl)pyrimidine-4,6-diamine]: the “Ligand Efficiency” value in series [1] is listed as “††† (†††: >0.39)”. Besides, in series [2], the half-life was 1 to 1.5 h, the Cmax was less than 800 ng/mL and the AUC(0-inf) is less than 1000 ng·h/mL. For the same molecule, in series [3], the “Brain Kpu, u” value is “††† (††† >0.2 u)”.
As for `Cc1nc(Nc2cc(Nc3ncccc3S(C)(=O)=O)ncn2)ccc1NC1(C)COC1` [Compound 6, N^4-(6-methyl-5-((3-methyloxetan-3-yl)amino)pyridin-2-yl)-N^6-(3-(methylsulfonyl)pyridin-2-yl)pyrimidine-4,6-diamine], the “Ligand Efficiency” value in series [1] is recorded as “††† (†††: >0.39)”. Also, in series [2], the half-life was less than 1 h, the Cmax is greater than 1500 ng/mL and the AUC(0-inf) was greater than 2000 ng·h/mL.
On to `Cc1nc(Nc2cc(Nc3ncccc3S(C)(=O)=O)ncn2)ccc1[C@H](C)N1CC2(COC2)C1` (stereo in doubt) [Compound 12, N^4-(5-(1-(2-oxa-6-azaspiro[3.3]heptan-6-yl)ethyl)-6-methylpyridin-2-yl)-N^6-(3-(methylsulfonyl)pyridin-2-yl)pyrimidine-4,6-diamine], for which the “Ligand Efficiency” value in series [1] is “††† (†††: >0.39)”. In addition, in series [2], the half-life was less than 1 h, the Cmax was greater than 1500 ng/mL and the AUC(0-inf) lay within 1000 to 2000 ng·h/mL.
On to `C[C@@H](c1ccc(Nc2cc(Nc3ncccc3S(C)(=O)=O)ncn2)nc1)N1CC2(COC2)C1` [Compound 1, (S)—N^4-(5-(1-(2-oxa-6-azaspiro[3.3]heptan-6-yl)ethyl)pyridin-2-yl)-N^6-(3-(methylsulfonyl)pyridin-2-yl)pyrimidine-4,6-diamine], for which, in series [1], the “Ligand Efficiency” value is “††† (†††: >0.39)”. For the same molecule, in series [2], the half-life was 1 to 1.5 h, the Cmax is less than 800 ng/mL and the AUC(0-inf) is 1000 to 2000 ng·h/mL. The “Brain Kpu, u” value in series [3] is “†† (††0.1-0.2 u)”.
Consider `CC(c1ccc(Nc2cc(Nc3ncccc3S(C)(=O)=O)ncn2)nc1C(F)(F)F)N1CC2(COC2)C1` (stereo in doubt) [Compound 11, (R)—N^4-(5-(1-(2-oxa-6-azaspiro[3.3]heptan-6-yl)ethyl)-6-(trifluoromethyl)pyridin-2-yl)-N^6-(3-(methylsulfonyl)pyridin-2-yl)pyrimidine-4,6-diamine], for which, in series [2], the half-life is greater than 1.5 h, the Cmax was 800 to 1500 ng/mL and the AUC(0-inf) was greater than 2000 ng·h/mL.
For `Cc1cccc(Nc2cc(Nc3ncccc3S(C)(=O)=O)ncn2)n1` [Compound 18, N^4-(6-methylpyridin-2-yl)-N^6-(3-(methylsulfonyl)pyridin-2-yl)pyrimidine-4,6-diamine], in series [1], the “Ligand Efficiency” value is given as “††† (†††: >0.39)”. Besides, in series [4], the “Brain Kpu, u” value is recorded as “††† (††† >0.2 u)”.
`Cc1ccnc(Nc2cc(Nc3ccccc3S(C)(=O)=O)ncn2)c1` [Compound 44, N^4-(4-methylpyridin-2-yl)-N^6-(2-(methylsulfonyl)phenyl)pyrimidine-4,6-diamine]: the “Ligand Efficiency” value in series [1] is given as “††† (†††: >0.39)”. For the same molecule, in series [2], the half-life was greater than 1.5 h, the Cmax is less than 800 ng/mL and the AUC(0-inf) was less than 1000 ng·h/mL.
